According to patent publication US6372431B1, “Mammalian toxicological response markers” (Incyte Genomics, Inc., priority 1999, dated 2002):
Like-named read-outs stand apart in the source and are kept apart here.

Assays:
[1] = system: SEQ ID NO:8; conditions: male, Sprague-Dawley, rat, in vivo, ip, 250 mg/kg
Procedure: (§1) For each target preparation, frozen liver was homogenized and lysed in TRIZOL reagent (Life Technologies, Gaithersburg Md.) following the modifications for liver RNA isolation. Messenger RNA was isolated using an OLIGOTEX kit (QIAGEN) and labeled with either Cy3- or Cy5-labeled primers (Operon Technologies, Alameda Calif.) using the GEMBRIGHT labeling kit (Incyte Pharmaceuticals). […] Quantitative and differential expression pattern control cDNAs were added to each labeling reaction. Labeled cDNA was treated with 0.5 M sodium bicarbonate. (pH 9.2) for 20 min at 85 ° C. to degrade the RNA and purified using two successive CHROMA SPIN 30 gel filtration spin columns (Clontech, Palo Alto Calif.). Cy3-labeled control sample and Cy5-labeled experimental sample were combined and precipitated in glycogen, sodium acetate, and ethanol.
(§2) Hybridizations were carried out using the methods described by Shalon (supra).
(§3) The microscope used to detect the reporter-labeled hybridization complexes was equipped with an Innova 70 mixed gas 10 W laser (Coherent Lasers, Santa Clara Calif.) capable of generating spectral lines at 488 nm for excitation of Cy3, and 632 nm for excitation of Cy5. The excitation laser light was focused on the array using a 20×microscope objective (Nikon, Melville N.Y.). The slide containing the array was placed on a computer-controlled X-Y stage on the microscope and raster-scanned past the objective. The 1.8 cm×1.8 cm array used in the present example was scanned with a resolution of 20 micrometers.
(§4) In two separate scans, a mixed gas multiline laser excited the two fluorophores sequentially. Emitted light was split, based on wavelength, into two photomultiplier tube detectors (PMT R1477, Hamamatsu Photonics, San Jose Calif.) corresponding to the two fluorophores. Appropriate filters positioned between the array and the photomultiplier tubes were used to filter the signals. The emission maxima of the fluorophores used were 565 nm for Cy3 and 650 nm for Cy5. Each array was typically scanned twice, one scan per fluorophore using the appropriate filters at the laser source, although the apparatus was capable of recording the spectra from both fluorophores simultaneously.
(§5) When two probes from different sources (e.g., representing test and control cells), each labeled with a different fluorophore, are hybridized to a single array for the purpose of identifying genes that are differentially expressed, the calibration was done by labeling samples of the calibrating cDNA with the two fluorophores and adding identical amounts of each to the hybridization mixture.
(§6) A grid was superimposed over the fluorescence signal image such that the signal from each spot was centered in each element of the grid. The fluorescence signal within each element was then integrated to obtain a numerical value corresponding to the average intensity of the signal. The software used for signal analysis was the GEMTOOLS gene expression analysis program (Incyte Pharmaceuticals).

[2] = system: SEQ ID NO:5; conditions: male, Sprague-Dawley, rat, in vivo, ip, 250 mg/kg
Procedure: as §1, §2, §3, §4, §5, §6

[3] = system: SEQ ID NO:2; conditions: male, Sprague-Dawley, rat, in vivo, ip, 250 mg/kg
Procedure: as §1, §2, §3, §4, §5, §6

[4] = system: SEQ ID NO:3; conditions: male, Sprague-Dawley, rat, in vivo, ip, 250 mg/kg
Procedure: as §1, §2, §3, §4, §5, §6

[5] = system: P450 4A; test: microarray gene expression in treated rat liver; assay type: in vivo; conditions: clofibrate-treated rat liver, 250 mg/kg bw i.p. single dose
Procedure: as §1, §2, §3, §4, §5, §6

[6] = system: SEQ ID NO:4; test: microarray gene expression in treated rat liver; assay type: in vivo; conditions: CLO-treated rat liver, 250 mg/kg bw i.p. single dose
Procedure: as §1, §2, §3, §4, §5, §6

[7] = system: P450 3A2; test: microarray gene expression in treated rat liver; assay type: in vivo; conditions: clofibrate-treated rat liver, 250 mg/kg bw i.p. single dose
Procedure: as §1, §2, §3, §4, §5, §6

[8] = system: P450 LA-omega 4A3; test: microarray gene expression in treated rat liver; assay type: in vivo; conditions: clofibrate-treated rat liver, 250 mg/kg bw i.p. single dose
Procedure: as §1, §2, §3, §4, §5, §6

CCOC(=O)C(C)(C)Oc1ccc(Cl)cc1 [clofibrate]
Gene expression (x-fold change) of SEQ ID NO: 8 ([1]; 12 h): 2.6 x-fold change
Gene expression (x-fold change) of SEQ ID NO: 8 ([1]; 24 h): 1.7 x-fold change
Gene expression (x-fold change) of SEQ ID NO: 8 ([1]; 3 days): 1.3 x-fold change
Gene expression (x-fold change) of SEQ ID NO: 8 ([1]; 7 days): 1.3 x-fold change
Gene expression (x-fold change) of SEQ ID NO: 8 ([1]; 28 days): 1.4 x-fold change
Gene expression (x-fold change) of SEQ ID NO: 5 ([2]; 12 h): 1.7 x-fold change
Gene expression (x-fold change) of SEQ ID NO: 5 ([2]; 24 h): 2.9 x-fold change
Gene expression (x-fold change) of SEQ ID NO: 5 ([2]; 3 days): 1.6 x-fold change
Gene expression (x-fold change) of SEQ ID NO: 5 ([2]; 7 days): 1.5 x-fold change
Gene expression (x-fold change) of SEQ ID NO: 5 ([2]; 28 days): 1.2 x-fold change
Gene expression (x-fold change) of SEQ ID NO: 2 ([3]; 12 h): 2.6 x-fold change
Gene expression (x-fold change) of SEQ ID NO: 2 ([3]; 24 h): 1.4 x-fold change
Gene expression (x-fold change) of SEQ ID NO: 2 ([3]; 3 days): 0.5 x-fold change
Gene expression (x-fold change) of SEQ ID NO: 2 ([3]; 7 days): 1.1 x-fold change
Gene expression (x-fold change) of SEQ ID NO: 2 ([3]; 28 days): 1.2 x-fold change
Gene expression (x-fold change) of SEQ ID NO: 3 ([4]; 12 h): 1.3 x-fold change
Gene expression (x-fold change) of SEQ ID NO: 3 ([4]; 24 h): 2 x-fold change
Gene expression (x-fold change) of SEQ ID NO: 3 ([4]; 3 days): 1.3 x-fold change
Gene expression (x-fold change) of SEQ ID NO: 3 ([4]; 7 days): 1.5 x-fold change
Gene expression (x-fold change) of SEQ ID NO: 3 ([4]; 28 days): 1.5 x-fold change
Gene expression (x-fold change) of P450 4A ([5]; 12 hours): 7.0 x-fold change
Gene expression (x-fold change) of P450 4A ([5]; 24 hours): 16.6 x-fold change
Gene expression (x-fold change) of P450 4A ([5]; 3 days): 1.4 x-fold change
Gene expression (x-fold change) of P450 4A ([5]; 7 days): 0.5 x-fold change
Gene expression (x-fold change) of P450 4A ([5]; 28 days): 1.3 x-fold change
Gene expression (x-fold change) of SEQ ID NO: 4 ([6]; 12 hours): 2 x-fold change
Gene expression (x-fold change) of SEQ ID NO: 4 ([6]; 24 hours): 0.36 x-fold change
Gene expression (x-fold change) of SEQ ID NO: 4 ([6]; 3 days): 0.47 x-fold change
Gene expression (x-fold change) of SEQ ID NO: 4 ([6]; 7 days): 0.26 x-fold change
Gene expression (x-fold change) of SEQ ID NO: 4 ([6]; 28 days): 0.30 x-fold change
Gene expression (x-fold change) of P450 3A2 ([7]; 12 hours): 0.14 x-fold change
Gene expression (x-fold change) of P450 3A2 ([7]; 24 hours): 1.2 x-fold change
Gene expression (x-fold change) of P450 3A2 ([7]; 3 days): 0.63 x-fold change
Gene expression (x-fold change) of P450 3A2 ([7]; 7 days): 0.50 x-fold change
Gene expression (x-fold change) of P450 3A2 ([7]; 28 days): 0.45 x-fold change
Gene expression (x-fold change) of P450 LA-omega 4A3 ([8]; 12 hours): 14.8 x-fold change
Gene expression (x-fold change) of P450 LA-omega 4A3 ([8]; 24 hours): 26.6 x-fold change
Gene expression (x-fold change) of P450 LA-omega 4A3 ([8]; 3 days): 1.1 x-fold change
Gene expression (x-fold change) of P450 LA-omega 4A3 ([8]; 7 days): 0.5 x-fold change
Gene expression (x-fold change) of P450 LA-omega 4A3 ([8]; 28 days): 0.47 x-fold change
